In a melting point compilation (Tetko et al.; mined from patent text by program, amines drawn as free bases though some values may be those of a salt):

Row | melting point | SMILES
1 | 62 to 64 °C | CC[C@H](COC)n1cc(Cl)nc(N2CCc3cc(OC)cc(C)c32)c1=O
2 | 287 °C | Cc1c(Nc2c(C#N)cnc3sc(C(=O)O)cc23)ccc2[nH]ccc12
3 | 85 to 86 °C | CC1OC(n2c(Cl)nc3cc(Cl)c(Cl)cc32)C(O)C1O (stereo not drawn)
4 | 126 to 128 °C | COc1ccc(N2C(=O)C(=C3CCCN3C)c3ccccc32)cc1Cl
5 | 176 to 177 °C | CCOC(=O)Cn1c(=S)c2cc(C)ccc2n(Cc2ccc(Cl)c(Cl)c2)c1=O
6 | 125 to 127 °C | COC(=O)c1ccccc1S(=O)(=O)NC(=O)Nc1cc(C)nc(C)n1
7 | 183 to 184 °C | CC(C)(Oc1ccc(NC(=O)Nc2ccc(Cl)c(Cl)c2)cc1)C(=O)O
8 | 103 to 105 °C | CCCOC(=O)c1cc(NC(=O)c2ccccc2C)ccc1Cl
9 | 289 to 292 °C | Cc1cnc(-c2ccc3c(c2)c2cc(-c4ccc(Cl)cc4Cl)c(=O)n(C)c2n3C)o1
10 | 194 to 220 °C | CC(=O)Nc1cc(C(=O)O)cc(C(F)(F)F)c1
11 | 185 to 187 °C | COc1cc(Cl)c(-n2c(=O)cc(C(F)(F)F)n(C)c2=O)c2sc(Cl)nc12
12 | 165 °C | CC1(C)CCc2c(N)c(Cl)cc(C(=O)O)c2O1
13 | 183 to 184 °C | Nc1nc(Nc2ccccc2)sc1C(=O)c1c(F)cccc1F
14 | 112 to 114 °C | O=c1cccccc1N1CCN(c2cccc(C(F)(F)F)c2)CC1
15 | 164 to 166 °C | CCCc1ccccc1OCCCOc1ccc2c(=O)cc(C(=O)O)oc2c1
16 | 226 to 228 °C | CC(=O)c1ccc2oc3ccc(C(C)=O)cc3c(=O)c2c1
17 | 207 to 209 °C | CC(C(N)=O)c1ccc2c(c1)C(=O)Cc1cc([N+](=O)[O-])ccc1S2 (stereo not drawn)
18 | 114 to 115 °C | COC(=O)C1Oc2ccc(Cl)cc2C(C)(c2ccccc2)O1 (stereo not drawn)
19 | 174 °C | O=C(O)CSONC(=O)c1c(Cl)ccc2cc(Cl)cnc12
20 | 187 to 189 °C | Cc1c(C(=O)O)cnn1-c1c(Cl)cc(C(F)(F)F)cc1Cl
21 | 141 to 142 °C | CCN(CC)C(=O)Oc1c2c(nn1-c1ccc(F)cc1)CCc1cc(F)ccc1-2

Row | melting point | SMILES
22 | 192 to 193 °C | COc1ccc(CC(N)=O)cc1C(=O)NCc1ccc(C(F)(F)F)cc1
23 | 160 to 164 °C | CO/C(=C\c1ccc2oc(Cc3nc(-c4ccccc4)oc3C)cc2c1)C(N)=O
24 | 159 to 162 °C | O=C(O)c1cn(C2CC2)c2c(C(F)(F)F)c(F)c(F)cc2c1=O
25 | 262 to 263 °C | COc1ccccc1C1(O)C(=O)Nc2ccc(C)c(Cl)c21 (stereo not drawn)
26 | 72 to 74 °C | CCC(CC)CC(NC(=O)COC)C1(c2ccc(Cl)c(Cl)c2)CCC1 (stereo not drawn)
27 | 240 °C | O=C(O)c1c(C(F)(F)F)nc2cc(C(F)(F)F)ccc2c1O
28 | 71 to 73 °C | Nc1c(Cl)cc(C(O)CNCCCCCC(=O)OCCc2ccsc2)cc1Cl (stereo not drawn)
29 | 180 to 182 °C | CCOC(=O)C(=O)Cc1cc(=O)n(Cc2ccc(Cl)cc2)c2ccccc12
30 | 181 to 183 °C | O=S1c2ccc(F)cc2CCc2ccc(CO)cc21 (stereo not drawn)
31 | 208 to 209 °C | Cc1cc(C(F)(F)C(F)(F)F)ccc1NC(=O)c1ccc(Cl)c(Cl)c1C(=O)NC(C)C
32 | 157 to 159 °C | CCCC(=O)c1cc2c(=O)cc(C(=O)OC)[nH]c2c(C)c1C
33 | 116 °C | CN1CCC(OC(=O)c2ccccc2Nc2ccnc3cc(C(F)(F)F)ccc23)CC1
34 | 179 °C | CC(=O)c1ccccc1NC(C#N)c1c(Cl)cccc1Cl (stereo not drawn)
35 | 80 to 82 °C | CCOC(=O)n1nc(-c2cccc(OC)c2)nc1-c1ccccc1CC
36 | 94 to 95 °C | Cc1ccc2[nH]c(CO)cc2c1
37 | 171 to 172 °C | Cc1cc(Cl)ccc1NC=NO
38 | 172 °C | CC(=O)Nc1cc(Cl)c(C(C#N)c2ccc(Cl)c(C(F)(F)F)c2)c(Cl)c1 (stereo not drawn)
39 | 144 °C | COC(=O)n1cc(Cl)c(-c2cc(Cl)cc(Cl)c2)n1
40 | 195 °C | COc1ccc2nc(Cl)c(C=NO)cc2c1
41 | 185 to 186 °C | COC(=O)COc1ccc(Cl)c2c1c1c(n2Cc2ccccc2)CCCC1C(N)=O (stereo not drawn)

Further lines, the molecule ahead of its results:

Row | SMILES | melting point
42 | Fc1ccc(-c2cc3ncnc(Nc4ccc5[nH]ccc5c4)c3s2)cc1Cl | 175 to 183 °C
43 | c1ccc(CC2CCc3ccccc3N2)cc1 (stereo not drawn) | 187 to 190 °C
44 | CSc1ccccc1-c1cc2c(ccn2C)c2c1C(=O)NC2=O | 272 to 274 °C
45 | O=Cc1c(O)c(O)cc([N+](=O)[O-])c1CCCC(=O)O | 164 to 168 °C
46 | COc1cccc2c1-c1ccc(NS(C)(=O)=O)cc1C(c1cccc(N(C)C(C)=O)c1)O2 (stereo not drawn) | 165 to 168 °C
47 | CC(=O)Nc1ncc(SCC(=O)OC(C)(C)C)s1 | 162 to 163 °C
48 | O=C(O)COc1ccc(SCc2ccc(OCc3ccc(F)cc3F)cc2)c2c1CCC2 | 158 to 160 °C
49 | CCOc1ccc(-c2cncn2-c2ccc(S(=O)(=O)NC(C)(C)C)cc2)cc1 | 215 °C
50 | O=C(NNc1nc2ccccc2n2cccc12)c1cc2ccccc2[nH]1 | 186 °C
51 | OC1(C#Cc2cc(Cl)ccc2Cl)CN2CCC1CC2 (stereo not drawn) | 197 to 200 °C
52 | Cc1ccc(C2=NN=CNC2C)cc1 (stereo not drawn) | 246 °C
53 | CCC1(CC)NC(=O)C(CC)(CC)N1OC(C)(C)C#N | 125 to 130 °C
54 | COc1ccc2c(c1)C1=C(SCC3(CCN(CC(O)COc4ccc(F)cc4)CC3)O1)C(=O)C2=O (stereo not drawn) | 80 to 81 °C
55 | Cc1cc(COc2cccc3c2CN(C2CCC(=O)NC2=O)C3=O)ccc1Cl (stereo not drawn) | 217 to 219 °C
56 | CC1(C(=O)O)OCCC2=CC3=CC=CCC3=C21 (stereo not drawn) | 171 to 173 °C
57 | O=C(c1ccc(-c2ccc3nnn(Cc4ccc5ncccc5c4)c3n2)cc1)N1CCC(N2CCCC2)CC1 | 125 to 127 °C
58 | COc1ccccc1NC(=O)CN1CCN(c2ncccc2C#N)CC1 | 174 to 175 °C
59 | COC(=O)NC1CCc2ccsc2C1 (stereo not drawn) | 156 to 157 °C
60 | O=C1CN(C(=O)N2CCOCC2)c2ccccc2N1 | 180 °C
61 | O=C1C=CC2=C(C1)Cc1ccccc1OCO2 | 93 to 95 °C
62 | CC(CBr)(CBr)C(=O)O | 60 to 62 °C

Row | SMILES | melting point
63 | N#CCCC1(C(N)=O)c2ccccc2-c2ccccc21 | 148 to 152 °C
64 | Cc1nc2cc(-c3ccc4c(c3)C=C(C(=O)Nc3ccc(CN(C)C5CCOCC5)cc3)CCS4(=O)=O)ccc2o1 | 236 to 240 °C
65 | COc1ncc(Cl)cc1C1(O)CCN(CC23CC(c4ccccc42)c2ccccc23)CC1 | 195 °C
66 | CC(=O)OCC(CCn1cnc2nc(N)ncc21)COC(C)=O | 137 to 139 °C
67 | O=C=Nc1ccc(S(=O)(=O)Cl)cc1 | 50 to 52 °C
68 | CC[C@H](C)[C@H](NC(=O)c1ccc(C)cc1)NC(=S)Nc1cccnc1 | 102 to 104 °C
69 | COc1ccccc1N1CCN(CCn2c(=O)c3cscc3n(C(C)=O)c2=O)CC1 | 128 to 129 °C
70 | O=C(O)C1OCc2ccccc2O1 (stereo not drawn) | 88 °C
71 | Cc1c(C(C)(C)C)cc(C(C)C)c(O)c1CO | 143 to 146 °C
72 | CCc1nc2c([nH]1)c(=S)n(CC)c(=O)n2CC(C)CC (stereo not drawn) | 115 to 117 °C
73 | CCOc1cc([N+](=O)[O-])c(N)cc1C(=O)OC | 156 to 157 °C
74 | CS(=O)(=O)c1ccc(CCNC(=O)C(N)=O)cc1OC1CCCC1 | 185 to 186 °C
75 | CC#CC(Cc1cccnc1)(C(=O)O)S(=O)(=O)c1ccc(OC)cc1 (stereo not drawn) | 119 to 121 °C
76 | C[Si](C)(C)NS(=O)(=O)c1ccccc1 | 62 to 63 °C
77 | Cc1ccccc1C(=O)CN1C(=O)C(NC(=O)Nc2cccc(C(=O)NO)c2)CN(C(=O)C(C)(C)C)c2ccccc21 (stereo not drawn) | 192 to 196 °C
78 | Cc1c(=O)n(Cc2ccc(C#N)cc2)c(=O)n2cc(C(=O)NCc3ccc(F)cc3)sc12 | > 220 °C
79 | c1ccc(CSc2ncccc2-c2ccccc2)cc1 | 99 to 100 °C
80 | O=C(NCCCCCCCCc1ccccc1)c1cc(-c2cccc(C(F)(F)F)c2)cc(-c2cccc(C(F)(F)F)c2OCCCCc2nnn[nH]2)c1 | 145 to 151 °C
81 | O=C1C=CC(=O)N1c1ccccc1SCCSc1ccccc1N1C(=O)C=CC1=O | 110 to 115 °C
82 | CCCc1c2c(c(O)c3c(=O)cc(C(=O)OCC)oc13)CCCC2 | 136 to 138 °C
83 | Cn1cc(C2=C(c3c4n(c5ccccc35)CCC(NC(=O)OC(C)(C)C)C4)C(=O)NC2=O)c2ccccc21 (stereo not drawn) | 153 to 155 °C

Row | SMILES | melting point
84 | CCC1Oc2cccc3nc4c(c(c23)NC1=O)CCCC4 (stereo not drawn) | 182 to 183 °C
85 | CCn1c2c(c3ccccc31)CCSC2(C)CCN(C)C (stereo not drawn) | 86 to 88 °C
86 | C=CCNc1nc(NC(C)C)c2scc(C)c2n1 | 106 to 107 °C
87 | CC1OC(=O)N(Cc2ccccc2[N+](=O)[O-])C1=O (stereo not drawn) | 114 °C
88 | CCCc1ccc(OCCC(C)C)cc1O | 40 to 40.5 °C
89 | CC(C)(C)C(=O)C(CCCCOc1ccccc1)n1cncn1 (stereo not drawn) | 59 to 62 °C
90 | CNc1ncc(CO)c(NC2CC2)n1 | 139 to 140 °C
91 | O=c1[nH]c2c(o1)-c1ccncc1CC2 | 290 to 292 °C
92 | Cc1c(-c2ccccc2)n(-c2cccc(S(C)(=O)=O)c2)c(-c2ccccc2)cc1=O | 246 to 248 °C
93 | O=[N+]([O-])c1ccccc1NCCNc1ccccc1 | 64 to 66 °C
94 | O=C1c2ccccc2CN1C1CCN(CCC2c3ccccc3-c3ccccc32)CC1 | 65 to 68 °C
95 | Cc1c(C)c(N2CCN(c3ccc(C(C)C)cc3)CC2)c(C)c2c1OC(C)(CO)C2 (stereo not drawn) | 160 to 163 °C
96 | C=Cc1ccc(CSCCC(=O)O)cc1 | 77 to 78 °C
97 | CCOC(=O)COC1CCN(C(=O)[C@H](C)CC(=O)c2ccc(C#N)cc2)CC1 | 97 to 98 °C
98 | CC(=O)C(=Cc1ccc(C=O)c([N+](=O)[O-])c1)C(C)=O | 102 to 104 °C
99 | CN(C)C(=O)c1ccccc1-c1ccc(C(=O)N2Cc3ccc(C(=O)NCc4cccnc4)n3Cc3ccccc32)cc1 | 206 to 207 °C
100 | O=Ic1ccc(Cl)cc1[N+](=O)[O-] | 118 °C
101 | CCOC(=O)c1ccc(C=Cc2cc3ccccc3s2)s1 | 116 to 117 °C
102 | O=C(CC1CCCCCC1=O)c1ccccc1 (stereo not drawn) | 42 to 44 °C
103 | O=C1CCC(C(=O)c2ccccc2)N1 (stereo not drawn) | 175 °C
